Measurements taken from article PMC12040169 (PLOS Biology, 2025).

Assays:
[1] = system: T1, CTL2-GFP (C. trachomatis L2/434/Bu, GFP-expressing); test: microbe, parasite or virus in culture; parameters: Intracellular C. trachomatis growth in HeLa cells, bulk GFP fluorescence relative to DMSO; settings: Chlamydia trachomatis, HeLa, 28.5 h; bulk GFP, mean of 2; read-out: % of control remaining
T1 construct: L2/434/Bu, GFP-expressing
Experimental: MICs were calculated as described above.

[2] = in vitro; parameters: Viability of infected HeLa host cells, resazurin conversion, bulk resorufin fluorescence relative to DMSO; settings: human, hela cells; bulk resorufin, mean of 2
[3] = system: T2, C. trachomatis L2/434/Bu expressing GFP (CTL2-GFP); test: microbe, parasite or virus in culture; parameters: C. trachomatis total inclusion area by high-content imaging, normalised to DMSO; settings: Chlamydia trachomatis, HeLa, 28.5 h; total inclusion area; read-out: % of control remaining
T2 construct: L2/434/Bu GFP intracellular growth in HeLa cells
Summary of the method: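 GFP/resorufin bulk fluorescence read → fix → Hoechst stain → high-content imaging. Inclusion total area + count = growth proxy; nuclei count = host viability proxy. MIC calc per earlier method.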

Row | Compound | activity at 1 µM [1] | activity at 5 µM [1] | activity at 10 µM [1] | viability at 28.5 h, 1 µM [2] | viability at 28.5 h, 5 µM [2] | viability at 28.5 h, 10 µM [2] | activity at 1 µM [3] | activity at 5 µM [3] | activity at 10 µM [3]
1 | O=[N+]([O-])c1ccc(-n2cnc3ccccc32)c([N+](=O)[O-])c1 [CBK261120] | 104% | 40.1% | 0% | 107% | 88.2% | 111% | 86.4% | 46.4% | 2.35%
2 | CC1=C(C)C(=NNC(N)=S)C(C)=C(C)C1=NNC(N)=S [CBK261262] | 116% | 39.1% | 12.7% | 90.9% | 90.8% | 90.6% | 96.7% | 31.5% | 17.1%
3 | COc1nccnc1NS(=O)(=O)c1ccc(Nc2c([N+](=O)[O-])cc([N+](=O)[O-])c3nonc23)cc1 [CBK261441] | 33.2% | 18% | 10.6% | 90.8% | 95.9% | 94.2% | 42.6% | 28.1% | 24.2%
4 | Cc1noc(NS(=O)(=O)c2ccc(NC(=O)COc3ccc(Cl)cc3Cl)cc2)c1C [CBK262142] | 103% | 26.5% | 14.3% | 95.1% | 97.3% | 100% | 102% | 49.8% | 24.6%
5 | COc1ccc(-c2csc(/C(C#N)=C/Nc3ccc(S(=O)(=O)Nc4nccs4)cc3)n2)cc1 [CBK262374] | 146% | 131% | 113% | 99.9% | 95.6% | 96.2% | 134% | 95% | 96.5%
6 | CCc1nnc(NS(=O)(=O)c2ccc(N/C=C3\C(=O)N(c4ccc(Cl)cc4)N=C3C)cc2)s1 [CBK262416] | 91.1% | 26.1% | 13.2% | 91.9% | 94.3% | 93.3% | 102% | 50.5% | 27%
7 | Cc1cc(NS(=O)(=O)c2ccc(Nc3nc(-c4cccs4)cs3)cc2)no1 [CBK262504] | 96.7% | 25.1% | 15.9% | 86.5% | 92.2% | 88.4% | 112% | 45.8% | 19.5%
8 | O=C(NCCCn1ccnc1)c1cc(-c2ccc(Br)cc2)nc2ccccc12 [CBK262645] | 138% | 87.8% | 31.9% | 103% | 107% | 94.9% | 126% | 95.8% | 45.4%
9 | COc1cc(NS(=O)(=O)c2ccc(N/C=C3/CCc4ccccc4C3=O)cc2)nc(OC)n1 [CBK263376] | 108% | 26% | 22.7% | 101% | 99.1% | 78.6% | 83.5% | 48.7% | 12.5%
10 | Cc1cc(OCC(=O)Nc2ccc(S(=O)(=O)Nc3onc(C)c3C)cc2)cc(C)c1Cl [CBK263491] | 59.3% | 15.2% | 5.2% | 103% | 100% | 117% | 55.4% | 25.5% | 11.8%
11 | CCOC(=O)c1c(C)n(-c2ccc(C)cc2)c2ccc(O)c(CN(C)C)c12 [CBK263499C] | 124% | 104% | 38.4% | 101% | 93.4% | 90.3% | 89% | 95.9% | 12.4%
12 | CN(C)CCNc1nc(-c2ccc(Cl)cc2)nc2ccccc12 [CBK263942] | 111% | 85.1% | 47.9% | 94.8% | 97% | 94.4% | 64.3% | 38.6% | 5.67%
13 | Cc1noc(NS(=O)(=O)c2ccc(NC(=O)CCN3C(=O)c4ccccc4C3=O)cc2)c1C [CBK264091] | 106% | 40.3% | 28.9% | 92.8% | 92.8% | 91.3% | 99.8% | 67.5% | 32.7%
14 | O=C(NCc1cccnc1)/C(=C/c1ccc(-c2cccc(Cl)c2)o1)S(=O)(=O)c1ccccc1 [CBK264508] | 101% | 45% | 8.14% | 107% | 100% | 97.8% | 78.5% | 44% | 10.3%
15 | CC(C)(C)CC(C)(C)NC(=S)Nc1ccc2nc(-c3ccccn3)c(-c3ccccn3)nc2c1 [CBK265118] | 95.9% | 66.8% | 47.2% | 110% | 106% | 98% | 82.1% | 31.9% | 16.8%
16 | Cc1noc(NS(=O)(=O)c2ccc(NC(=O)/C=C/c3ccc(C(C)C)cc3)cc2)c1C [CBK265430] | 66.5% | 26.3% | 11.6% | 108% | 102% | 106% | 69.9% | 23.1% | 22.2%
17 | O=C(NCCCn1ccnc1)c1cc(-c2cccc(Br)c2)nc2ccccc12 [CBK265476] | 88.9% | 13% | 0% | 108% | 115% | 116% | 76.4% | 28.5% | 3.75%
18 | Cn1cc(C(c2ccc(OCC(=O)O)cc2)c2cn(C)c3ccccc23)c2ccccc21 [CBK266403] | 91% | 23.4% | 9.15% | 113% | 111% | 115% | 87.5% | 36% | 2.98%
19 | COc1ccc(S(=O)(=O)Nc2ccc(S(=O)(=O)Nc3nccs3)cc2)c([N+](=O)[O-])c1 [CBK266801] | 13.9% | 4.96% | 0% | 110% | 123% | 119% | 26.3% | 5.01% | 1.27%
20 | O=S(=O)(Nc1ncccn1)c1ccc(NC(=S)Nc2ccc3c(c2)OCO3)cc1 [CBK267046] | 54.3% | 10.7% | 12.9% | 114% | 121% | 119% | 88.8% | 21.2% | 18.3%
21 | N=C(N)Nc1nc(-c2ccccc2)c2cc(F)ccc2n1 [CBK267350] | 93.6% | 64.3% | 16.8% | 107% | 111% | 105% | 90.4% | 64.6% | 12.8%
22 | Cc1ccc(S(=O)(=O)Nc2ccc(S(=O)(=O)Nc3nccs3)cc2)c([N+](=O)[O-])c1 [CBK267410] | 17.1% | 7.21% | 1.76% | 110% | 97.6% | 98.2% | 23% | 5.7% | 1.86%
23 | Cc1cc(C)c2nc(-c3ccccn3)cc(C(=O)Nc3ccc(S(=O)(=O)Nc4onc(C)c4C)cc3)c2c1 [CBK267775] | 95.8% | 105% | 66.8% | 100% | 94.8% | 98.6% | 115% | 111% | 74.8%
24 | O=[N+]([O-])c1cc2c(cc1C(Nc1ccccn1)c1cc(Cl)c3cccnc3c1O)OCO2 (stereo not drawn) [CBK267795] | 109% | 82.9% | 79.7% | 95.1% | 98.7% | 93.2% | 94.3% | 40.8% | 25.9%
25 | Oc1c(CN2CCN(c3ccc(F)cc3)CC2)cc(Br)c2cccnc12 [CBK268051] | 113% | 46.4% | 37.8% | 96.2% | 97.9% | 92.4% | 119% | 33% | 37.5%
